Measured values published in patent US7538241B2, “Hsp90 family protein inhibitors” (Kyowa Hakko Kogyo Co., Ltd., priority 2003, dated 2009).

The compounds below were run on human mammary cancer-derived KPL-4 cells (assay: Cell growth inhibition test with KPL-4 cells (WST-1)). Details: KPL4, 72 hours, read-out: 50% growth inhibition concentration (GI50).
Assay type: cell-based
Method: In a 96-well plate (Nunc), human mammary cancer-derived KPL-4 cells were sown in an amount of 2000 cells/well, and pre-incubated in 10% fetal calf serum (FCS)-containing Dulbecco Modified Eagle Medium (DMEM) (incubation medium) in a 5% carbon dioxide incubator at 37° C. for 24 hours. A dimethylsulfoxide (DMSO) solution of a test compound controlled at 10 mmol/L was stepwise diluted with the incubation medium, and added to each well in a total amount of 100 μL/well, and incubated in the 5% carbon dioxide incubator at 37° C. for 72 hours. After the incubation, WST-1 {4-[3-(4-Iodophenyl)-2-(4-nitrophenyl)-2H-5-tetrazolio]-1,3-benzene disulfonate}-labeled mixture (Rosh Diagnostic) diluted 2-fold with the incubation medium was added thereto in an amount of 20 μL/well, and incubated in the 5% carbon dioxide incubator at 37° C. for 1 hour. Using a microplate spectrophotometer (Biorad's Model 550), the absorbance at 450 nm and 655 nm of each well was measured. The cell growth inhibition activity of the test compound was indicated by the 50% growth inhibition concentration (GI50) thereof. A method of calculating GI50 is described. The absorbance at 655 nm of each well was subtracted from the absorbance at 450 nm thereof to give a value (absorbance difference). The absorbance difference obtained with the cells without being treated with the test compound was taken as 100%, and this was compared with the absorbance difference obtained with the cells treated with the test compound to give the concentration of the compound for 50% cell growth inhibition, and this is referred to as GI50.

SMILES | GI50
CCCc1c(O)cc(O)c(-c2ccccc2)c1CCOC [Compound 95, 5-(2-Methoxyethyl)-4-phenyl-6-propylbenzene-1,3-diol] | ≤ 50 µM
COCCc1c(CC(C)C)c(O)cc(O)c1-c1ccccc1 [Compound 96, 6-Isobutyl-5-(2-methoxyethyl)-4-phenylbenzene-1,3-diol] | ≤ 50 µM
COCCCc1c(Br)c(O)cc(O)c1-c1ccccc1 [Compound 97, 6-Bromo-5-(3-methoxypropyl)-4-phenylbenzene-1,3-diol] | ≤ 50 µM
CNCCc1c(Br)c(O)cc(O)c1-c1ccccc1 [Compound 98, 6-Bromo-5-[2-(N-methylamino)ethyl]-4-phenylbenzene-1,3-diol] | ≤ 50 µM
CN(C)CCc1c(Br)c(O)cc(O)c1-c1ccccc1 [Compound 99, 6-Bromo-5-[2-(N,N-dimethylamino)ethyl]-4-phenylbenzene-1,3-diol] | ≤ 50 µM
COCCNCCc1c(Br)c(O)cc(O)c1-c1ccccc1 [Compound 100, 6-Bromo-5-{2-[N-(2-methoxyethyl)amino]ethyl}-4-phenylbenzene-1,3-diol] | ≤ 50 µM
COCCNCc1c(Br)c(O)cc(O)c1-c1ccccc1 [Compound 103, 6-Bromo-5-[N-(2-methoxyethyl)aminomethyl]-4-phenylbenzene-1,3-diol] | ≤ 50 µM
COCCc1c(Br)c(O)cc(O)c1-c1cccc(OC)c1 [Compound 105, 6-Bromo-5-(2-methoxyethyl)-4-(3-methoxyphenyl)benzene-1,3-diol] | ≤ 50 µM
COc1cccc(-c2c(O)cc(O)c(Br)c2CC(C)=NO)c1 [Compound 107, 6-Bromo-5-[2-(hydroxyimino)propyl]-4-(3-methoxyphenyl)benzene-1,3-diol] | ≤ 50 µM
Oc1cc(O)c(-c2ccccc2)c(CCOCC2CCCO2)c1Br (stereo not drawn) [Compound 109, 6-Bromo-5-[2-(oxolan-2-ylmethoxy)ethyl]-4-phenylbenzene-1,3-diol] | ≤ 50 µM
OCCOCCc1c(Br)c(O)cc(O)c1-c1ccccc1 [Compound 110, 6-Bromo-5-[2-(2-hydroxyethoxy)ethyl]-4-phenylbenzene-1,3-diol] | ≤ 50 µM
COCOCCc1c(Br)c(O)cc(O)c1-c1ccccc1 [Compound 111, 6-Bromo-5-[2-(methoxymethoxy)ethyl]-4-phenylbenzene-1,3-diol] | ≤ 50 µM
Oc1cc(O)c(-c2ccccc2)c(C2OCCO2)c1Br [Compound 112, 6-Bromo-5-(1,3-dioxolan-2-yl)-4-phenylbenzene-1,3-diol] | ≤ 50 µM
CC(=O)CCc1c(Br)c(O)cc(O)c1-c1ccccc1 [Compound 114, 4-(2-Bromo-3,5-dihydroxy-6-phenylphenyl)butan-2-one] | ≤ 50 µM
CC(O)CCc1c(Br)c(O)cc(O)c1-c1ccccc1 (stereo not drawn) [Compound 115, 5-(3-Hydroxybutyl)-6-bromo-4-phenylbenzene-1,3-diol] | ≤ 50 µM
COCCc1c(Br)c(O)cc(O)c1-c1cccc(C(N)=O)c1 [Compound 117, 3-[5-Bromo-2,4-dihydroxy-6-(2-methoxyethyl)phenyl]benzamide] | ≤ 50 µM
COCCc1c(C(C)=O)c(O)cc(O)c1-c1cccc(C(=O)OC)c1 [Compound 119, Methyl 3-[5-acetyl-2,4-dihydroxy-6-(2-methoxyethyl)phenyl]benzoate] | ≤ 50 µM
COCCc1c(C(C)=O)c(O)cc(O)c1-c1cccc(-c2ccccc2)c1 [Compound 120, 1-[2,4-Dihydroxy-6-(2-methoxyethyl)-5-(3-phenylphenyl)phenyl]ethanone] | ≤ 50 µM

SMILES | GI50
CCOc1cccc(-c2c(O)cc(O)c(C(C)=O)c2CCOC)c1 [Compound 121, 1-[2,4-Dihydroxy-5-(3-ethoxyphenyl)-6-(2-methoxyethyl)phenyl]ethanone] | ≤ 50 µM
CC(=O)c1c(O)cc(O)c(-c2ccccc2)c1CCCO [Compound 124, 1-[2,4-Dihydroxy-6-(3-hydroxypropyl)-5-phenylphenyl]ethanone] | ≤ 50 µM
COCCc1c(C(=O)C(F)(F)F)c(O)cc(O)c1-c1ccccc1 [Compound 125, 1-[2,4-Dihydroxy-6-(2-methoxyethyl)-5-phenylphenyl]-2,2,2-trifluoroethanone] | ≤ 50 µM
CCc1c(OC)cc(O)c(-c2ccccc2)c1CC(=O)OC [Compound 126, Methyl 6-ethyl-3-hydroxy-5-methoxy-2-phenylphenylacetate] | ≤ 50 µM
COCCc1c(C(=O)OC)c(O)cc(O)c1-c1ccccc1 [Compound 128, Methyl 2,4-dihydroxy-6-(2-methoxyethyl)-5-phenylbenzoate] | ≤ 50 µM
COCCc1c(OC)c(O)cc(O)c1-c1ccccc1 [Compound 129, 6-Methoxy-5-(2-methoxyethyl)-4-phenylbenzene-1,3-diol] | ≤ 50 µM
CCc1c(O)cc(O)c(-c2cccc(C(=O)OC)c2)c1CCOC [Compound 131, Methyl 3-[5-ethyl-2,4-dihydroxy-6-(2-methoxyethyl)phenyl]benzoate] | ≤ 50 µM
CCc1c(O)cc(O)c(-c2cccc(-c3ccccc3)c2)c1CCOC [Compound 132, 6-Ethyl-5-(2-methoxyethyl)-4-(3-phenylphenyl)benzene-1,3-diol] | ≤ 50 µM
CCOc1cccc(-c2c(O)cc(O)c(CC)c2CCOC)c1 [Compound 133, 4-(3-Ethoxyphenyl)-6-ethyl-5-(2-methoxyethyl)benzene-1,3-diol] | ≤ 50 µM
COCCc1c(C(C)=O)c(O)cc(O)c1-c1cccc(OCc2ccccc2)c1 [Compound 135, 1-[2,4-Dihydroxy-5-(3-benzyloxyphenyl)-6-(2-methoxyethyl)phenyl]ethanone] | ≤ 50 µM
COCCN(C)C(=O)Cc1c(C(C)=O)c(O)cc(O)c1-c1cccc(OC)c1 [Compound 141, 2-[2-Acetyl-3,5-dihydroxy-6-(3-methoxyphenyl)phenyl]-N-(2-methoxyethyl)-N-methylacetamide] | ≤ 50 µM
CCc1c(O)cc(O)c(-c2cccc(OC)c2)c1CC(=O)OC [Compound 142, Methyl 2-ethyl-3,5-dihydroxy-6-(3-methoxyphenyl)phenylacetate] | ≤ 50 µM
C=CCOCCc1c(CC)c(O)cc(O)c1-c1ccccc1 [Compound 144, 5-(2-Allyloxyethyl)-6-ethyl-4-phenylbenzene-1,3-diol] | ≤ 50 µM
CCc1c(O)cc(O)c(-c2cccc(OC)c2)c1CC(=O)N(C)CCOC [Compound 150, 2-[2-Ethyl-3,5-dihydroxy-6-(3-methoxyphenyl)phenyl]-N-(2-methoxyethyl)-N-methylacetamide] | ≤ 50 µM
COCCc1c(-c2ccccc2)c(O)cc(O)c1C(C)C [Compound 151, 6-Isopropyl-5-(2-methoxyethyl)-4-phenylbenzene-1,3-diol] | ≤ 50 µM
COCCOCCc1cc(OS(N)(=O)=O)cc(O)c1-c1ccccc1 [Compound 152, 3-(2-Methoxyethoxy)ethyl-2-phenyl-5-(sulfamoyloxy)phenol] | ≤ 50 µM
CCc1c(O)cc(O)c(-c2cccc(CCC(C)=O)c2)c1CCOCCOC [Compound 153, 4-(3-{5-Ethyl-2,4-dihydroxy-6-[2-(2-methoxyethoxy)ethyl]phenyl}phenyl)butan-2-one] | ≤ 50 µM
CCc1c(O)cc(O)c(-c2cccc(CCC(C)O)c2)c1CCOCCOC (stereo not drawn) [Compound 154, 6-Ethyl-4-[3-(3-hydroxybutyl)phenyl]-5-[2-(2-methoxyethoxy)ethyl]benzene-1,3-diol] | ≤ 50 µM
